34 compounds from PubChem BioAssay AID489035 (Sanford-Burnham Center for Chemical Genomics, 2010) can be followed below.

For orientation: IC50 means the concentration needed to halve the response being measured.

Activity calls are given as the source filed them. No rule for the calls is given here. Bounds are passed on as bounds.

The assay concerns Jurkat NF-kB reporter, TCR-induced, luciferase luminescence. Kind of assay: inhibitors of TCR-driven NF-kB activation, dose response, Jurkat cells, luminescence (AID 489035).
Take `O=C(/C=C/c1cccc([N+](=O)[O-])c1)n1cnc2ccccc21`: the IC50 is 5.79 µM.

`COc1cccc(N2CCN(C(=O)c3ccc(CS(=O)c4ccccc4C)o3)CC2)c1` (centres undefined): the half-inhibitory concentration (IC50) was 16.7 µM.

For the compound `Cc1cc2c(cc1C)C(c1ccccc1OC(C)C)CC(=O)N2` (centres undefined), the half-maximal inhibitory concentration (IC50) is 7.61 µM. Next, `CC[C@]1(O)CC2CN(CCc3c([nH]c4ccccc34)[C@@](C(=O)OC)(c3cc4c(cc3OC)N(C=O)[C@H]3[C@@](O)(C(=O)OC)[C@H](OC(C)=O)[C@]5(CC)C=CCN6CC[C@]43[C@@H]65)C2)C1` (some centres undefined): > 80 µM (inactive). Next, `COc1cccc(N2CCN(C(=O)c3cn(Cc4ccccc4)nc3-c3cccnc3)CC2)c1`: > 80 µM (inactive). The result for `CC1CCN(c2c(NCc3ccc(C(=O)N4CCc5ccccc54)cc3)c(=O)c2=O)CC1` reads > 80 µM (inactive); that for `CCCCCCCCCCCCCCCC[n+]1cccc(C(=O)N(CC)CC)c1`, 3.02 µM; that for `CSC1=NC(C(Cl)(Cl)Cl)N=C(c2ccc(C)cc2)N1` (centres undefined), > 80 µM (inactive). Take `COc1cc(C(=O)N/N=C/c2cc([N+](=O)[O-])cs2)cc(OC)c1OC`: the IC50 was > 80 µM (inactive). The result for `CCOC(=O)c1[nH]c(C)c(C(=O)OCC(=O)NC(C)c2ccc(F)cc2)c1C` (centres undefined) reads > 80 µM (inactive); that for `COc1ccc(/C=N/NC(=O)COc2ccccc2-c2ccccc2)cc1`, 37.9 µM (inactive). The result for `NS(=O)(=O)c1ccc(Sc2nc3ccccc3s2)c([N+](=O)[O-])c1` reads 0.79 µM; that for `CC(C)Oc1ccccc1C1CC(=O)Nc2cc3c(cc21)OCO3` (centres undefined), > 80 µM (inactive). For `C/C=C(\C)C(=O)N[C@@H](c1ccccc1)[C@@H](O)C(=O)O[C@H]1C[C@@]2(O)[C@@H](OC(=O)c3ccccc3)C3[C@](C)(C(=O)[C@H](OC(C)=O)C(=C1C)C2(C)C)[C@H](O)C[C@H]1OC[C@@]31OC(C)=O` (some centres undefined), the IC50 is under 0.16 µM. As for `CCCCn1c2c(c(=N)c3c1CCC3)CCC2`, the IC50 is > 80 µM (inactive). For the compound `Cc1ccc(N/C(N)=N/c2nc(CSc3nnc(C)s3)cc(=O)[nH]2)c(C)c1`, the IC50 is 42.1 µM (inactive).

As for `CCCOc1ccccc1C1CC(=O)Nc2cc3c(cc21)OCO3` (centres undefined), the IC50 was > 80 µM (inactive). Next, `c1ccc2c(c1)CCN(c1ncnc3c1[nH]c1ccccc13)C2`: 24.2 µM (inactive); `CN(Cc1ccccc1)C1=CC(=[N+]2CCCCC2)CC(C)(C)C1`: 20.3 µM (inactive). Turning to `CC(C)(C)OC(=O)NCCCCCc1cn(CC(=O)NCCCCCCCCCCC(=O)N2CCN(C(=O)OC(C)(C)C)CC2)nn1`, the IC50 is > 80 µM (inactive). As to `CCCC(=O)NC(c1ccc(C(C)C)cc1)c1ccc2cccnc2c1O` (centres undefined), the IC50 was 4.15 µM. The result for `CSc1nc(N(C)NC(=O)c2cccc(C)c2)c2ccccc2n1` reads 27.8 µM (inactive). Take `COc1cc(NS(=O)(=O)c2ccc(C)cc2)c2ncccc2c1`: the IC50 was 2.12 µM.

In the case of `COc1ccc(CC(=O)Nc2nc(-c3ccc(F)c(F)c3)cs2)cc1OC`, the IC50 was 22.4 µM (inactive). Consider `COc1ccc(-c2c(C#N)c(N)nc3c2CCc2ccccc2-3)cc1OC`, for which the IC50 is 53.6 µM (inactive).

Take `COc1cc(C2=NOC(C(=O)NCc3ccc(F)cc3)C2)cc(OC)c1OC` (centres undefined): the IC50 was 6.16 µM.

For the compound `COC(=O)c1[nH]c2ccc(F)cc2c1NS(=O)(=O)c1ccc(OC)cc1`, the IC50 was > 80 µM (inactive).

On to `CCCCN=C[C@]12CCC(O)CC1(O)CCC1[C@@H]2CC[C@]2(C)[C@H](C3C=CC(=O)O3)CCC12O` (some centres undefined), for which the IC50 was > 80 µM (inactive). On to `CSc1nccc(-c2nn(-c3ccc(C)cc3)ccc2=O)n1`, for which the IC50 was 33.3 µM (inactive). Next, `CCOc1ccc(Br)cc1C1=CC(=O)C[C@H](c2ccc(OC)cc2)C1`: > 80 µM (inactive). The result for `CN(C)c1ccc(-[n+]2c(-c3ccccc3)cc(-c3ccccc3)cc2-c2ccccc2)cc1` reads 7.96 µM; that for `O=S1(=O)Nc2c(ccc3cccnc23)-c2ccccc21`, 2.17 µM; that for `CC(=O)NC(c1ccc2ccccc2c1)c1ccc2cccnc2c1O` (centres undefined), 7.22 µM. For `CCOC(=O)/C=C/S(=O)(=O)c1ccc(NC(C)=O)cc1`, the IC50 is 1.12 µM.
